In ChEMBL document CHEMBL5143507, “Small Molecule Kinase Inhibitor Drugs (1995-2021): Medical Indication, Pharmacology, and Synthesis” (J Med Chem, 2022):

Legend:
[1] = biological target: Receptor tyrosine-protein kinase erbB-2 (Homo sapiens, UniProt P04626); test: Inhibition of N-terminal GST fused HER2 (679 to 1255 residues) (unknown origin) using poly (Glu-Tyr) E4Y1 peptide as substrate measured after 4 hrs by ADP-Glo reagent method
[2] = biological target: Epidermal growth factor receptor (Homo sapiens, UniProt P00533); test: Inhibition of N-terminal GST fused EGFR (668 to 1091 residues) (unknown origin) using poly (Glu-Tyr) E4Y1 peptide as substrate incubated for 2 hrs by ADP-Glo reagent method
Sequence of Epidermal growth factor receptor (P00533 whole entry, the tested form may be a part): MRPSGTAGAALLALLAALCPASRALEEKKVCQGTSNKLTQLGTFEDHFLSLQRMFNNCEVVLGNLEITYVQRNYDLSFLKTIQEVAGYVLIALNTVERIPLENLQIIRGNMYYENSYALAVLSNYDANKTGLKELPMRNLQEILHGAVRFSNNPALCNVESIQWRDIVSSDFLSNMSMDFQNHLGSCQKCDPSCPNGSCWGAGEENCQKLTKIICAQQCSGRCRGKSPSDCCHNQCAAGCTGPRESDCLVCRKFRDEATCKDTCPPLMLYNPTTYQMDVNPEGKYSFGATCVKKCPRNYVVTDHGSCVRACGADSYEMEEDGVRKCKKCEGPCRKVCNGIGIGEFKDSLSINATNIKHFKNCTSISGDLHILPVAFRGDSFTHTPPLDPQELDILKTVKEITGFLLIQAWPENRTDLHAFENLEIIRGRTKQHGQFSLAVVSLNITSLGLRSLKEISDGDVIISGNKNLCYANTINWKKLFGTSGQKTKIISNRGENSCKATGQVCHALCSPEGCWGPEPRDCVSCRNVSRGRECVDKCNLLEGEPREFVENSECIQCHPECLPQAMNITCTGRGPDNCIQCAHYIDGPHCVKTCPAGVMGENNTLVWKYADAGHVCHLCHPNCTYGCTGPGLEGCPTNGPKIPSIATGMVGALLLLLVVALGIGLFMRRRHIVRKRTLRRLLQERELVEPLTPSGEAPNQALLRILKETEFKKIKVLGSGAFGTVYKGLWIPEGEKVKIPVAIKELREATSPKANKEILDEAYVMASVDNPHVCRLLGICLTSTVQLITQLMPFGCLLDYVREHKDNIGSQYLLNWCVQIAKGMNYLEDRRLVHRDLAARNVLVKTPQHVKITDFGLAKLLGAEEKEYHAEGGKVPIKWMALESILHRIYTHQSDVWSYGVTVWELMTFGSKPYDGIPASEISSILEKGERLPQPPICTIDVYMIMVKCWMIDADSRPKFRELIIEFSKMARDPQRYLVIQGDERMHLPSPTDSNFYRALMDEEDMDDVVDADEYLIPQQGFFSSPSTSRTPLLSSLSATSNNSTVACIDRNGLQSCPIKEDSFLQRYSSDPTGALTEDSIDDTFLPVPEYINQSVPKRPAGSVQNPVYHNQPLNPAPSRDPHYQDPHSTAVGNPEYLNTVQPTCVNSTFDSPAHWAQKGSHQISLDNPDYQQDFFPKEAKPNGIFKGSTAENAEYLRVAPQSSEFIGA

Sequence of Receptor tyrosine-protein kinase erbB-2 (P04626 whole entry, the tested form may be a part): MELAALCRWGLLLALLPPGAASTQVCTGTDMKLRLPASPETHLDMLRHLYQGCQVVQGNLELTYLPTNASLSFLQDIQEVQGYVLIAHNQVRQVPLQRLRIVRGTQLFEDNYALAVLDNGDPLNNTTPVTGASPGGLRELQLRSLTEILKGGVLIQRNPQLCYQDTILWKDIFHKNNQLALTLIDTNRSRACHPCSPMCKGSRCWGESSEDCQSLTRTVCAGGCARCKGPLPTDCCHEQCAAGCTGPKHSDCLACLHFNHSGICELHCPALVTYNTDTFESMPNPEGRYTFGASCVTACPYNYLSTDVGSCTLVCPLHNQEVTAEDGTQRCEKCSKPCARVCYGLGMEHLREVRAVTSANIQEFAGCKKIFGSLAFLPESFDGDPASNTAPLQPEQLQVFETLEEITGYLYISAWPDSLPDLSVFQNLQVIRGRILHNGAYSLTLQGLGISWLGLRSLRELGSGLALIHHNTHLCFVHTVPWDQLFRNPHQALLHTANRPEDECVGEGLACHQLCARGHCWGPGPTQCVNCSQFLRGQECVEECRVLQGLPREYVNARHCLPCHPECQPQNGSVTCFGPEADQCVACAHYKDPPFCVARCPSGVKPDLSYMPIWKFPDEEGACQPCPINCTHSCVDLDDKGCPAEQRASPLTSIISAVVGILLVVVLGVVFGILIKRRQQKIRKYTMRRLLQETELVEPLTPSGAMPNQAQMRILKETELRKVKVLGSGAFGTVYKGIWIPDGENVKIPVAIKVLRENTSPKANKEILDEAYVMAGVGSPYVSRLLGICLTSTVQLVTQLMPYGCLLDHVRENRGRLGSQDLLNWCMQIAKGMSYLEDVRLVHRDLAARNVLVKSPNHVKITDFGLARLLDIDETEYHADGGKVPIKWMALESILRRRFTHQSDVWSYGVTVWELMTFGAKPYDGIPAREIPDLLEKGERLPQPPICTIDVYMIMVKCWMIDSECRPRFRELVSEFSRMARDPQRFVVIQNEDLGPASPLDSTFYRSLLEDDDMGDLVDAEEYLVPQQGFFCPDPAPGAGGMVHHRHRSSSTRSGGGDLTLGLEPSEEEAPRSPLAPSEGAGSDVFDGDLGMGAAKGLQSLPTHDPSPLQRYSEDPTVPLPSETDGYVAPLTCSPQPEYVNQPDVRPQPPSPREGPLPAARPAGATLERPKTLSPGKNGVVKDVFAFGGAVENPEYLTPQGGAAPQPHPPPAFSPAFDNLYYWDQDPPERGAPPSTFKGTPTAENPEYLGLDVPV

Cc1cc(Nc2ncnc3ccc(NC4=NC(C)(C)CO4)cc23)ccc1Oc1ccn2ncnc2c1 [TUCATINIB]
IC50 [1]: 6.9 nM | IC50 [2]: 449 nM
